From patent publication US8883438B2, “Method for diagnosing cell proliferation disorders having a neoactive mutation at residue 97 of isocitrate dehydrogenase 1” (Agios Pharmaceuticals, Inc., priority 2009, dated 2014)

What was measured:
[1] = target: T1, IDH1 G97D (Homo sapiens, UniProt O75874, G97D); test: IDH1 G97D inhibition assay (NADPH/aKG, diaphorase/resazurin fluorescence readout); assay type: biochemical; details: 50 minutes at room temperature
T1 construct: Oligo nucleotides were designed to PCR out the coding region of IDH1 with NdeI at the 5′ end and XhoI at the 3′; Ser-Leu-Glu junction (stop codon changed to Ser, then Leu-Glu); made in house; host or cells: E. coli Rosetta
Experimental: Assays were conducted in a standard 384-well plate in a reaction volume of 76 uL assay buffer (150 mM NaCl, 10 mM MgCl2, 20 mM Tris pH 7.5, 0.05% bovine serum albumin, 2 mM beta-mercaptoethanol) as follows: To 25 uL of substrate mix (4 uM NADPH, 1 mM aKG), 1 uL of test compound in DMSO was added. The plate was centrifuged briefly, and then 25 ul of enzyme mix was added (0.1 ug/mL ICDH1 G97D) followed by a brief centrifugation and shake at 100 RPM. The reaction was incubated for 50 minutes at room temperature, then 25 ul of detection mix (30 uM resazurin, 36 ug/ml diaphorase) was added, and the mixture further incubated for 5 minutes at room temperature. The activity readout as a result of the conversion of resazurin to resorufin was detected by fluorescent spectroscopy at excitation 544 nm and emission 590 nm (c/o 590 nm).

[2] = test system: glioblastoma multiforme; details: persons newly diagnosed with glioblastoma multiforme; cited from earlier work

T1 sequence (O75874 whole entry G97D): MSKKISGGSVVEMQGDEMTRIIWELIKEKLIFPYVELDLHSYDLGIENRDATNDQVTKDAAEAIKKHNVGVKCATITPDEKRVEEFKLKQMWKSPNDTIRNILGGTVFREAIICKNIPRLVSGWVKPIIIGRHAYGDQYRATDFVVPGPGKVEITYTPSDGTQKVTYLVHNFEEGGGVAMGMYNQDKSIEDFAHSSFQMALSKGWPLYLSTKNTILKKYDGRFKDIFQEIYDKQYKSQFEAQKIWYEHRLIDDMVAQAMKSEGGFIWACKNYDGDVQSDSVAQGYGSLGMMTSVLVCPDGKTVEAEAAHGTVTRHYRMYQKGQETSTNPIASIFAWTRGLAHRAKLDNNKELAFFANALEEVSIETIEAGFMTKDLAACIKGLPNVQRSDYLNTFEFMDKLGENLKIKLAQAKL

Row | SMILES | IC50 [1] [µM] | tolerability [2]
1 | CCCCC1=NN2C(=N)/C(=C/c3ccc(-c4ccc([NH2+][O-])cc4Cl)o3)C(=O)N=C2S1 | 1 to 5 | –
2 | O=C1/C(=C/c2ccc(F)cc2)C(CSc2ccc(Cl)cc2)=NN1c1nc2ccccc2s1 | 1 to 5 | –
3 | Cn1nnc2c(C(N)=O)ncn2c1=O [temozolomide, Temozolomide] | – | well tolerated
4 | N#C/C(=C\c1ccc(-c2cc([N+](=O)[O-])ccc2O)o1)c1nc2ccccc2[nH]1 | 1 to 5 | –
5 | O=C1NC(=S)S/C1=C\c1ccc(-c2ccc(N3CCOCC3)c([N+](=O)[O-])c2)o1 | 5 to 10 | –
